PubChem BioAssay AID248 (DTP/NCI, 2004)
Values joined by “and” are separate entries in the source; they are usually repeats but may differ in a detail not shown here. Equal values may be shown once. Toxic doses and inconclusive results are not listed. Rule as the data show it: active = T/C of 150% or more; inactive = T/C below 125%.

System: L1210 leukemia ip in BDF1 mice, survival T/C
Experiment: NCI In Vivo Anticancer Drug Screen. Data for tumor model L1210 Leukemia (intraperitoneal) in B6D2F1 (BDF1) mice
Details: endpoint: mean survival time, higher = longer survival
Summary of the method: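 Ratio derived from survival: compound-dosed mice over vehicle-dosed mice, all bearing a transplantable tumor.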

[1] = dose: 100.0 mg/kg/injection, schedule: Q01DX001 (ip), vehicle: saline
[2] = dose: 200.0 mg/kg/injection, schedule: Q01DX001 (ip), vehicle: saline
[3] = dose: 400.0 mg/kg/injection, schedule: Q01DX001 (ip), vehicle: saline
[4] = dose: 400.0 mg/kg/injection, schedule: Q01DX001 (ip), vehicle: carboxymethylcellulose (CMC)
[5] = dose: 100.0 mg/kg/injection, schedule: Q01DX001 (ip), vehicle: carboxymethylcellulose (CMC)
[6] = dose: 200.0 mg/kg/injection, schedule: Q01DX001 (ip), vehicle: carboxymethylcellulose (CMC)
[7] = dose: 25.0 mg/kg/injection, schedule: Q04DX003 (ip), vehicle: saline
[8] = dose: 50.0 mg/kg/injection, schedule: Q04DX003 (ip), vehicle: saline
[9] = dose: 100.0 mg/kg/injection, schedule: Q04DX003 (ip), vehicle: saline
[10] = dose: 100.0 mg/kg/injection, schedule: Q04DX003 (ip), vehicle: Klucel (hydroxypropylcellulose) (HPC)
[11] = dose: 200.0 mg/kg/injection, schedule: Q04DX003 (ip), vehicle: Klucel (hydroxypropylcellulose) (HPC)
[12] = dose: 400.0 mg/kg/injection, schedule: Q04DX003 (ip), vehicle: Klucel (hydroxypropylcellulose) (HPC)
[13] = dose: 12.5 mg/kg/injection, schedule: Q01DX009 (ip), vehicle: saline with Tween-80
[14] = dose: 25.0 mg/kg/injection, schedule: Q01DX009 (ip), vehicle: saline with Tween-80
[15] = dose: 12.5 mg/kg/injection, schedule: Q04DX003 (ip), vehicle: saline
[16] = dose: 100.0 mg/kg/injection, schedule: Q01DX001 (ip), vehicle: Klucel (hydroxypropylcellulose) (HPC)
[17] = dose: 200.0 mg/kg/injection, schedule: Q01DX001 (ip), vehicle: Klucel (hydroxypropylcellulose) (HPC)
[18] = dose: 100.0 mg/kg/injection, schedule: Q04DX003 (ip), vehicle: saline with Tween-80
[19] = dose: 200.0 mg/kg/injection, schedule: Q04DX003 (ip), vehicle: saline with Tween-80
[20] = dose: 400.0 mg/kg/injection, schedule: Q04DX003 (ip), vehicle: saline with Tween-80
[21] = dose: 100.0 mg/kg/injection, schedule: Q01DX009 (ip), vehicle: Klucel (hydroxypropylcellulose) (HPC)

Measured: T/C

Cc1cccc2c1sc1c(C)cc(C(=O)CCC(=O)O)cc12
inactive: [1] 94 % of control | [2] 89 % of control | [3] 97 % of control

Cc1cc(C)c(C(=O)c2ccccc2)c(=O)o1
inactive: dose: 10.0 mg/kg/injection, schedule: Q01DX001 (ip), vehicle: carboxymethylcellulose (CMC) 100 % of control | dose: 20.0 mg/kg/injection, schedule: Q01DX001 (ip), vehicle: carboxymethylcellulose (CMC) 100 % of control | dose: 40.0 mg/kg/injection, schedule: Q01DX001 (ip), vehicle: carboxymethylcellulose (CMC) 97 % of control | [4] 103 % of control

CCOP(=O)(C(O)C(Cl)(Cl)Cl)C(O)C(Cl)(Cl)Cl (centres undefined)
inactive: dose: 75.0 mg/kg/injection, schedule: Q04DX003 (ip), vehicle: saline with Tween-80 95 % of control | dose: 150.0 mg/kg/injection, schedule: Q04DX003 (ip), vehicle: saline with Tween-80 97 % of control

FC1C(F)(F)C(F)(F)C(F)(F)C(F)(F)C1(F)F
inactive: dose: 50.0 mg/kg/injection, schedule: Q01DX001 (ip), vehicle: carboxymethylcellulose (CMC) 97 % of control | [5] 97 % of control | [6] 107 % of control | [4] 96 % of control

CCc1c(N)nc(N)nc1Cl
inactive: dose: 25.0 mg/kg/injection, schedule: Q01DX Z (ip), vehicle: methylcellulose (MC) 91 % of control

O=C1NC(=O)c2c(Cl)c(Cl)c(Cl)c(Cl)c21
inactive: [7] 95 % of control | [8] 106 % of control | [9] 92 % of control and 93 % of control | dose: 200.0 mg/kg/injection, schedule: Q04DX003 (ip), vehicle: saline 98 % of control | dose: 400.0 mg/kg/injection, schedule: Q04DX003 (ip), vehicle: saline 111 % of control

CC(=O)c1c(C)cc2cc(C)cc(O)c2c1O
inactive: [10] 97 % of control | [11] 101 % of control | [12] 101 % of control

O=[N+]([O-])c1sc2ccccc2c1O
inactive: [13] 99 % of control | [14] 99 % of control

Cc1ccc(CCOC(=O)c2cc([N+](=O)[O-])cc([N+](=O)[O-])c2)cc1
inactive: dose: 75.0 mg/kg/injection, schedule: Q01DX001 (ip), vehicle: carboxymethylcellulose (CMC) 94 % of control | dose: 150.0 mg/kg/injection, schedule: Q01DX001 (ip), vehicle: carboxymethylcellulose (CMC) 94 % of control | dose: 300.0 mg/kg/injection, schedule: Q01DX001 (ip), vehicle: carboxymethylcellulose (CMC) 90 % of control

O=[N+]([O-])c1ccc(S(=O)(=O)SC(F)(F)F)cc1
inactive: dose: 75.0 mg/kg/injection, schedule: Q01DX001 (ip), vehicle: saline 106 % of control | dose: 150.0 mg/kg/injection, schedule: Q01DX001 (ip), vehicle: saline 102 % of control

O=Nc1ccc(NO)c2ccccc12
inactive: [15] 108 % of control | dose: 25.0 mg/kg/injection, schedule: Q04DX003 (ip), vehicle: saline + alcohol 100 % of control | [7] 102 % of control | dose: 50.0 mg/kg/injection, schedule: Q04DX003 (ip), vehicle: saline + alcohol 100 % of control | [8] 100 % of control | dose: 100.0 mg/kg/injection, schedule: Q04DX003 (ip), vehicle: saline + alcohol 96 % of control | [9] 99 % of control

CCOc1ccc(-n2c(O)c(N=Nc3ccc(Br)cc3)c(=O)n(-c3ccc(OC)cc3)c2=S)cc1
inactive: dose: 50.0 mg/kg/injection, schedule: Q01DX001 (ip), vehicle: Klucel (hydroxypropylcellulose) (HPC) 94 % of control | [16] 94 % of control | [17] 94 % of control

CC(C)=C(c1ccc(Cl)cc1)c1c(Cl)ncnc1Cl
inactive: [18] 101 % of control | [19] 102 % of control | [20] 104 % of control

CC1([N+](=O)[O-])COP(=O)(Nc2ccc(Cl)cc2)OC1 (centres undefined)
inactive: [5] 95 % of control | [6] 93 % of control | [4] 98 % of control

COC(=O)C(I)C(OC)c1ccccc1 (centres undefined)
inactive: [18] 98 % of control | [19] 96 % of control | [20] 95 % of control

CCC(CC)C(N)=O
inactive: [16] 100 % of control | [17] 102 % of control | dose: 400.0 mg/kg/injection, schedule: Q01DX001 (ip), vehicle: Klucel (hydroxypropylcellulose) (HPC) 107 % of control

Cc1ccc2nc(-c3cc(Br)ccc3O)c(-c3cc(Br)ccc3O)nc2c1
inactive: [21] 97 % of control | [10] 96 % of control | dose: 200.0 mg/kg/injection, schedule: Q01DX009 (ip), vehicle: Klucel (hydroxypropylcellulose) (HPC) 100 % of control | [11] 101 % of control | dose: 400.0 mg/kg/injection, schedule: Q01DX009 (ip), vehicle: Klucel (hydroxypropylcellulose) (HPC) 89 % of control | [12] 101 % of control

Nc1ccc2[nH]c(=S)sc2c1
inactive: dose: 100.0 mg/kg/injection, schedule: Q01DX009 (ip), vehicle: saline with Tween-80 104 % of control | dose: 200.0 mg/kg/injection, schedule: Q01DX009 (ip), vehicle: saline with Tween-80 104 % of control | dose: 400.0 mg/kg/injection, schedule: Q01DX009 (ip), vehicle: saline with Tween-80 108 % of control

Cc1cc(N(CCCl)CCCl)ccc1C=Nc1ccc(-c2csc(-c3ccccc3)n2)c(Cl)c1
inactive: [5] 98 % of control | [6] 95 % of control | [4] 107 % of control

O=C(C(=O)c1ccc([N+](=O)[O-])cc1)c1ccccc1
inactive: [10] 97 % of control | [11] 100 % of control | [12] 94 % of control

CC1CC(N2CSC(=S)N(C3CC(C)CC(C)(C)C3)C2)CC(C)(C)C1 (centres undefined)
inactive: dose: 25.0 mg/kg/injection, schedule: Q01DX009 (ip), vehicle: Klucel (hydroxypropylcellulose) (HPC) 93 % of control | [21] 86 % of control and 90 % of control | [10] 89 % of control | [11] 94 % of control | [12] 91 % of control

COc1ccccc1OCC(O)COc1ccccc1OC
inactive: [13] 92 % of control | [15] 106 % of control | [14] 95 % of control | [7] 105 % of control | dose: 50.0 mg/kg/injection, schedule: Q01DX009 (ip), vehicle: saline with Tween-80 94 % of control | [8] 105 % of control | [1] 104 % of control | [2] 100 % of control | [3] 102 % of control

NC(N)=N/N=C/C/C=N/N=C(N)N
inactive: dose: 15.0 mg/kg/injection, schedule: Q01DX Z (ip), vehicle: saline 97 % of control | dose: 30.0 mg/kg/injection, schedule: Q01DX Z (ip), vehicle: saline 100 % of control | dose: 60.0 mg/kg/injection, schedule: Q01DX Z (ip), vehicle: saline 96 % of control | dose: 120.0 mg/kg/injection, schedule: Q01DX Z (ip), vehicle: saline 100 % of control | dose: 120.0 mg/kg/injection, schedule: Q01DX Z (oral), vehicle: saline 102 % of control | dose: 240.0 mg/kg/injection, schedule: Q01DX Z (oral), vehicle: saline 102 % of control | dose: 480.0 mg/kg/injection, schedule: Q01DX Z (oral), vehicle: saline 107 % of control | dose: 960.0 mg/kg/injection, schedule: Q01DX Z (oral), vehicle: saline 103 % of control

Oc1ccc2ccccc2c1C=Nc1ccccc1
inactive: dose: 100.0 mg/kg/injection, schedule: Q01DX001 (ip), vehicle: other 91 % of control | dose: 200.0 mg/kg/injection, schedule: Q01DX001 (ip), vehicle: other 98 % of control | dose: 400.0 mg/kg/injection, schedule: Q01DX001 (ip), vehicle: other 96 % of control

CN(C)C(=S)NNC(=O)c1ccc(Cl)cc1
inactive: dose: 6.25 mg/kg/injection, schedule: Q01DX001 (ip), vehicle: saline with Tween-80 98 % of control | dose: 12.5 mg/kg/injection, schedule: Q01DX001 (ip), vehicle: saline with Tween-80 101 % of control | dose: 25.0 mg/kg/injection, schedule: Q01DX001 (ip), vehicle: saline with Tween-80 104 % of control
